Assays:
[1] = In vitro metabolism in monkey liver microsomes; assay type: in vitro ADME
Method: (§1) The total volume of each incubation system was 200 μL, and the medium was 100 mM phosphate buffer solution (PBS, pH7.4) comprising a final concentration of 3 μM DC037009 and 2 mM NADPH. A37° C. water bath was used for incubation. After 3 minutes of pre-incubation, various liver microsomes protein were added into the buffer-substrate-cofactors mixture to start reaction. The concentration of liver microsomal protein of various species was 1.0 mg/mL. After reacting 60 min, the reaction was terminated with isovolumetric ice-cold acetonitrile. The total volume of blank was 200 μL, and the medium was 100 mM phosphate buffer solution (PBS, pH 7.4), comprising a final concentration of 3 μM DC037009 and heat inactivated microsomal proteins. All incubation samples were double.
(§2) A 150 μL sample from each of double incubation samples was mixed. A 300 μL of acetonitrile was added, mixed by vortexing for 1 min, and centrifuged 5 min (11000 rpm). The supernatant was placed in a 10 mL tube, and dried in 40° C. with nitrogen stream. The residue was dissolved with 100 μL methanol/water (1:9, v/v). A 10 μL sample was taken for UPLC/Q-TOF MS analysis.

[2] = In vitro metabolism in rat liver microsomes; assay type: in vitro ADME
Method: as §1, §2

[3] = system: SD rats; experiment: Repetitive dose toxicity experiment on SD rats for 14 days; assay type: in vivo; conditions: oral, 100 and 200 mg/kg for 14 days
[4] = Acute toxicity experiment on SD rats by oral gavage; assay type: in vivo; conditions: rat, in vivo, single dose, oral gavage, read-out: maximum tolerated dose (MTD)
Method: (§3) SD rats were administered compound DC037009 with single dose of 500 and 1000 mg/kg by oral gavage.

[5] = system: SD rats; experiment: as above; assay type: in vivo; conditions: single dose of 500 and 1000 mg/kg by oral gavage
Method: as §3

[6] = In vitro metabolism in mouse liver microsomes; assay type: in vitro ADME, mice
Method: as §1, §2

[7] = target: hERG (Homo sapiens, UniProt Q12809); experiment: Inhibition effect on hERG; assay type: cell-based
Chain of hERG (Q12809 whole entry): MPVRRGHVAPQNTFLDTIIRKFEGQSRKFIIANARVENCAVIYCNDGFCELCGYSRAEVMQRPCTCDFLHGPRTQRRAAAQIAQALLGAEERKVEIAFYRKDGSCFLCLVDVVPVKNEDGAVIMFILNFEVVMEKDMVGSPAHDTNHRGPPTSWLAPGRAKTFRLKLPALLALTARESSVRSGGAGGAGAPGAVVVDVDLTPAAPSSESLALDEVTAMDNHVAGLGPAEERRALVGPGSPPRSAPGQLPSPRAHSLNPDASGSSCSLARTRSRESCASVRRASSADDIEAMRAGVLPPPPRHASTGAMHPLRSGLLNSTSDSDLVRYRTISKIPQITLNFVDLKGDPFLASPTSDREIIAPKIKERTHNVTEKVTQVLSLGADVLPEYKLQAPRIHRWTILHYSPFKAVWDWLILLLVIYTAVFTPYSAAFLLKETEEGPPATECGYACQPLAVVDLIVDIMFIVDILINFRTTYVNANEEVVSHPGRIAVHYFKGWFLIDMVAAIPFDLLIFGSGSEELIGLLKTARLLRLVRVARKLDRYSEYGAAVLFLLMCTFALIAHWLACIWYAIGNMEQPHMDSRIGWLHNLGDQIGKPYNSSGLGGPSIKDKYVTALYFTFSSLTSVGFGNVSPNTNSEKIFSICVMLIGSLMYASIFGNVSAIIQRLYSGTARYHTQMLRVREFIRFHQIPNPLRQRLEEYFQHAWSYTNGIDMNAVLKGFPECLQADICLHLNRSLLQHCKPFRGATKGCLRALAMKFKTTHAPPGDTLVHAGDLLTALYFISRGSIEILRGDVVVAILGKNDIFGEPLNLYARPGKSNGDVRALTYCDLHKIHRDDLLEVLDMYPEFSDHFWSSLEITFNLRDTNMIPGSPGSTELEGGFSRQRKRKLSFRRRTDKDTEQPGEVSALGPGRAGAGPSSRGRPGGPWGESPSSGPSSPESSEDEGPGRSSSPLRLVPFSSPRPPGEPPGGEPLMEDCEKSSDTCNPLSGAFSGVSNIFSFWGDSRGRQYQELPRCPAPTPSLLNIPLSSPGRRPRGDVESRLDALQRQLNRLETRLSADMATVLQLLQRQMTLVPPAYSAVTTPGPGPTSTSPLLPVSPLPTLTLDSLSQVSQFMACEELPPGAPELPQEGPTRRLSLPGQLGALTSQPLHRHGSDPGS

[8] = In vitro metabolism in human liver microsomes; assay type: in vitro ADME
Method: as §1, §2

[9] = system: rat seminal vesicle; experiment: Seminal vesicle contraction caused by electrical stimulation of hypogastric nerve in normal rats; assay type: in vivo; conditions: P>0.05
Excerpt: Effect of DC037009 on Seminal Vesicle Contraction Caused by Electrical Stimulation of Hypogastric Nerve in Normal Rats

[10] = Stability of the compound on heating; assay type: physicochemical; conditions: heated at 80° C. for 24 hours
Method: Compound DC037009 was heated at 80° C. for 24 hours, and the compound purity only varied 0.5%.

[11] = target: T1, α1B-AR (Homo sapiens, UniProt P35368); experiment: Calcium mobilization (Fluo-4) antagonism of phenylephrine in HEK293 cells expressing α1B-AR/Gα16; assay type: cell-based; conditions: phenylephrine 30 nM
T1 construct: expressed in transfected cells; host or cells: HEK293
T1 sequence (P35368 1-520): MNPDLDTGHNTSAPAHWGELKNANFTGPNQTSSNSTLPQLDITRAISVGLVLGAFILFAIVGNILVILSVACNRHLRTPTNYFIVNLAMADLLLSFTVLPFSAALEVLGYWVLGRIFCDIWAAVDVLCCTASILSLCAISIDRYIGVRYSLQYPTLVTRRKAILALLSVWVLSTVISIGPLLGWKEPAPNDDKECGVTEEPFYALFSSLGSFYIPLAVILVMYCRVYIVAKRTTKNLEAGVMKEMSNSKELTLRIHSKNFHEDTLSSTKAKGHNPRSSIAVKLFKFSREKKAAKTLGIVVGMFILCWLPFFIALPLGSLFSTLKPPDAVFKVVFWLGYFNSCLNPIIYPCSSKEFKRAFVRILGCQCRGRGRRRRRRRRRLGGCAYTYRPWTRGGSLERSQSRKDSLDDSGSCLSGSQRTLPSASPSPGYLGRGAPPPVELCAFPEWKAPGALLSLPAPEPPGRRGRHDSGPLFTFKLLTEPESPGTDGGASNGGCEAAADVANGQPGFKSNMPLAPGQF
Method: HEK293 cells stably expressing α1A-AR/Gα16, α1B-AR/Gα16, α1D-AR/Gα16 were seeded in a 96-well plate, and cultured for 24 hours. Then the medium was removed and 40 μL Hank's balanced salt solution (HBSS: containing 5.4 mM KCl, 0.3 mM Na2HPO4, 0.4 mM KH2PO4, 4.2 mM NaHCO3, 1.3 mM CaCl2, 0.5 mM MgCl2, 0.6 mM MgSO4, 137 mM NaCl, 5.6 mM D-glucose, and 250 μM sulfinpyrazone, pH 7.4) containing 2 μM Fluo-4 AM was added into each well, and incubated at 37° C. for 45 min. Dye was removed and 50 μL of HBSS containing either test compound or 1% DMSO (negative control) was added. After incubation at room temperature for 10 min, Flex Station 3 microplate reader was used to read the value. At specified time points, 25 μL of agonist (phenylephrine, final concentration 30 nM) was dispensed into the well automatically using the reader and fluorescence intensity change of dye caused by intracellular calcium concentration change was detected at an excitation wavelength of 485 nm and an emission wavelength of 525 nm.
After incubation with different drugs, the reaction rate of cells to 1-AR agonist phenylephrine was calculated as follows: Reaction rate %=(D−B)/(S−B)*100%;
The reaction rate of the same drug at different doses was tested using GraphPad Prism software by non-linear regression analysis, and the dose-response curve was obtained and IC50 values was measured. Data were obtained from three separate experiments, and each experiment included three duplicate wells.

[12] = 3 μM DC037009, 1.0 mg/mL microsomal protein, NADPH, 60 min, UPLC/Q-TOF MS

For `COc1cc2c(cc1OC)CN1CCc3cc4c(cc3[C@@H]1C2)OCO4` [DC037009, S-(−)-2,3-methylenedioxy-10,11-dimethoxy-5,8,13,13a-tetrahydro-6H-dibenzo[a,g]quinolizine], the “Mass area, monkey” value [1, 12] was 1.6, the “kinds of metabolites detected in monkey liver microsome” value ([1]; 60 min incubation) was “seven” and the “metabolic stability in monkey liver microsome” value ([1]; 60 min incubation) was “unstable”. The “Mass area, rat” value [2, 12] was 115.4, the “kinds of metabolites detected in rat liver microsome” value ([2]; 60 min incubation) was “eight” and the “changes of blood and coagulation indicators and serum biochemical indicators” value [3] was “did not show any toxicological significance”. The death [3] was “no death rat was found”, the gross anatomy [3] was “no pathological changes related to administrated drug” and the MTD [4] was 1000 mg/kg. The changes after anatomy [5] was “no obvious drug-related changes”, the “Mass area, mice” value [6, 12] was 6.3 and the “kinds of metabolites detected in mouse liver microsome” value ([6]; 60 min incubation) was “eight”. The “metabolic stability in mouse liver microsome” value ([6]; 60 min incubation) was “unstable”, the “antagonistic activity to α1A-receptor relative to inhibitory activity on hERG” value [7] was 272 folds and the IC50 ([7]; hERG) was 8.1 µM. For the same compound, the “Maximum inhibition rate (%)” value ([7]; hERG) was 84.7%, the “Mass area, Human” value [8, 12] was 416.8 and the “kinds of metabolites detected in human liver microsome” value ([8]; 60 min incubation) was “Four”. For the same compound, the “metabolic stability in human liver microsome” value ([8]; 60 min incubation) was “relatively higher”, the “effect on contraction amplitude and area under contraction curve in rat seminal vesicle induced by electrical stimulation” value [9] was “no significant inhibitive effect” and the “variation of compound purity” value [10] was 0.5%. The IC50 [11] was 5210 nM.
`COc1cc2c(cc1OCc1ccccc1)C[C@H]1c3cc4c(cc3CCN1C2)OCO4` [DC037016] showed an IC50 [11] of 4250 nM.
